Legend:
FILIP1 = assay: RT-PCR validation of FILIP1 (normalized to GAPDH); format: in vivo, rat; conditions: n = 9; vehicle 1.28
Source text: (§1) Following sacrifice, the left hippocampus was utilized for genome-wide expression profiling. […] These included Adcyap1 with fold change (FC) of 1.5, and p=0.029, Tiam1 with FC of −1.5 and p=0.028, and Filip1 with FC of −1.75 and p=0.032 (Table 1). The RT-PCR validation of the fold change of FILIP1 and Tiam1 is shown in Table 2 and Table 3, respectively.

[1] = tested on: hippocampal transcripts (mitochondrial pathway genes and genes associated with neurological function); assay: transcriptome examination using RNA-Seq, hippocampus; format: in vivo, rat
Source text: Transcriptome Examination Using RNA-Seq Upon MARCKS Peptide Decoy Treatment
as §1
Table 4 disclosed herein provides the major pathways in mitochondria altered in the MARCKS peptide decoy treated animals. Mitochondrial NADH dehydrogenase is a key enzyme in the oxidative phosphorylation pathway in the mitochondria. Mitochondrially encoded cytochrome c oxidase I (MT-CO1), also known as cytochrome c oxidase I (COX1), is a protein that is found in mitochondria. Cytochrome c oxidase is the component of the respiratory chain that catalyzes the reduction of oxygen to water. MT-CO1 is associated with aging. Mutations in the human MT-CO1 gene have been associated with several diseases, including neurodegenerative diseases, such as late-onset Alzheimer disease. Cytochrome b (mt-cyb) is a component of the ubiquinol-cytochrome c reductase complex (complex III or cytochrome b-c1 complex), which is a respiratory chain that generates an electrochemical potential coupled to ATP synthesis. ATP synthase F0 subunit 6 (or subunit/chain A) is a subunit of F0 complex of transmembrane F-type ATP synthase. This subunit is a key component of the proton channel, and may play a direct role in the translocation of protons across the membrane. ATP6 is a gene associated with neuropathy, ataxia, and retinitis pigmentosa. mt-ATP8 is another subunit involved in ATP biosynthetic process.
Table 5 provides the list of the genes that are directly or indirectly associated with neurological function and are with significant fold change in peptide decoy treated animals in comparison to the controls.

[2] = locus chrM: 9450-9798, vehicle 617.42

Substance: SEQ ID NO: 1: fusion peptide including a TAT protein transduction domain and residues surrounding two known serine phosphorylation targets (Ser159 and Ser163) within MARCKS (YGRKKRRQRRRCKRFSFKKSFKLSGFSFKK; TAT MARCKS fusion)
- RT-PCR FILIP1 Average (normalized to GAPDH) (FILIP1): 1.20
- Ln (Fold Change) (M/V), Calm3 ([1]; locus chr1: 77244168-77252808): 1.894
- MARCKS FPKM, Calm3 ([1]; locus chr1: 77244168-77252808, vehicle 856.54): 1621.94 FPKM
- Ln (Fold Change) (M/V), Fth1 ([1]; locus chr1: 212430422-212432741): 1.397
- MARCKS FPKM, Fth1 ([1]; locus chr1: 212430422-212432741, vehicle 354.58): 495.44 FPKM
- Ln (Fold Change) (M/V), P97600_RAT ([1]; locus chr1: 249369571-249369889): 0.7544
- MARCKS FPKM, P97600_RAT ([1]; locus chr1: 249369571-249369889, vehicle 492.68): 371.65 FPKM
- Ln (Fold Change) (M/V), Selt ([1]; locus chr2: 147913244-147929296): 0.5377
- MARCKS FPKM, Selt ([1]; locus chr2: 147913244-147929296, vehicle 214.44): 115.30 FPKM
- Ln (Fold Change) (M/V), Snap25 ([1]; locus chr3: 124860288-124894636): 0.8176
- MARCKS FPKM, Snap25 ([1]; locus chr3: 124860288-124894636, vehicle 750.47): 613.59 FPKM
- Ln (Fold Change) (M/V), Ywhab ([1]; locus chr3: 154926026-155140469): 0.5137
- MARCKS FPKM, Ywhab ([1]; locus chr3: 154926026-155140469, vehicle 131.57): 67.59 FPKM
- Ln (Fold Change) (M/V), Sdcbp ([1]; locus chr5: 19822457-19849209): 0.666
- MARCKS FPKM, Sdcbp ([1]; locus chr5: 19822457-19849209, vehicle 131.61): 87.65 FPKM
- Ln (Fold Change) (M/V), Rraga ([1]; locus chr5: 105659673-105661250): 0.4798
- MARCKS FPKM, Rraga ([1]; locus chr5: 105659673-105661250, vehicle 433.02): 207.77 FPKM
- Ln (Fold Change) (M/V), HPCA_RAT ([1]; locus chr5: 148268061-148276223): 2.229
- MARCKS FPKM, HPCA_RAT ([1]; locus chr5: 148268061-148276223, vehicle 141.44): 315.32 FPKM
- Ln (Fold Change) (M/V), RTN1_RAT ([1]; locus chr6: 94397064-94426283): 1.726
- MARCKS FPKM, RTN1_RAT ([1]; locus chr6: 94397064-94426283, vehicle 842.08): 1453.43 FPKM
- Ln (Fold Change) (M/V), Tuba1b ([1]; locus chr7: 137706855-137709839): 0.5387
- MARCKS FPKM, Tuba1b ([1]; locus chr7: 137706855-137709839, vehicle 219.23): 118.09 FPKM
- Ln (Fold Change) (M/V), Ywhae ([1]; locus chr10: 63072127-63109833): 0.6546
- MARCKS FPKM, Ywhae ([1]; locus chr10: 63072127-63109833, vehicle 892.66): 584.35 FPKM
- Ln (Fold Change) (M/V), Aldoc ([1]; locus chr10: 64308825-64312415): 0.5322
- MARCKS FPKM, Aldoc ([1]; locus chr10: 64308825-64312415, vehicle 140.11): 74.57 FPKM
- Ln (Fold Change) (M/V), Ndrg2 ([1]; locus chr15: 27338551-27347196): 0.4224
- MARCKS FPKM, Ndrg2 ([1]; locus chr15: 27338551-27347196, vehicle 142.86): 60.35 FPKM
- Ln (Fold Change) (M/V), Calm-ps2 ([1]; locus chr15: 64161641-64162753): 0.7792
- MARCKS FPKM, Calm-ps2 ([1]; locus chr15: 64161641-64162753, vehicle 383.97): 299.19 FPKM
- Ln (Fold Change) (M/V), Gpm6a ([1]; locus chr16: 39670749-39783384): 0.5709
- MARCKS FPKM, Gpm6a ([1]; locus chr16: 39670749-39783384, vehicle 311.49): 177.84 FPKM
- Ln (Fold Change) (M/V), Slc25a4 ([1]; locus chr16: 49353475-49357271): 1.571
- MARCKS FPKM, Slc25a4 ([1]; locus chr16: 49353475-49357271, vehicle 243.91): 383.20 FPKM
- Ln (Fold Change) (M/V), Mt3 ([1]; locus chr19: 11284554-11286402): 1.316
- MARCKS FPKM, Mt3 ([1]; locus chr19: 11284554-11286402, vehicle 301.07): 396.12 FPKM
- Ln (Fold Change) (M/V), Non-Annotated ([1]; locus chrM: 67-1025): 0.8288
- MARCKS FPKM, Non-Annotated ([1]; locus chrM: 67-1025, vehicle 69491.10): 57596.80 FPKM
- Ln (Fold Change) (M/V), Non-Annotated ([1]; locus chrM: 1093-2664): 0.6921
- MARCKS FPKM, Non-Annotated ([1]; locus chrM: 1093-2664, vehicle 53178.50): 36802.40 FPKM
- Ln (Fold Change) (M/V), Mitochondrial NADH dehydrogenase subunit 1 mt-nd1 ([1]; locus chrM: 2739-3831): 0.7838
- MARCKS FPKM, Non-Annotated ([1]; locus chrM: 2739-3831, vehicle 51.90): 0.00 FPKM
- MARCKS FPKM, Non-Annotated ([1]; locus chrM: 2739-3831, vehicle 126.72): 0.00 FPKM
- MARCKS FPKM, Mitochondrial NADH dehydrogenase subunit 1 mt-nd1 ([1]; locus chrM: 2739-3831, vehicle 1879.89): 1473.47 FPKM
- Ln (Fold Change) (M/V), Non-Annotated ([1]; locus chrM: 2739-3831, vehicle FPKM 51.90): 0
- Ln (Fold Change) (M/V), Non-Annotated ([1]; locus chrM: 2739-3831, vehicle FPKM 126.72): 0
- Ln (Fold Change) (M/V), Mitochondrial NADH dehydrogenase subunit 2 mt-nd2 ([1]; locus chrM: 3903-5008): 0.5713
- MARCKS FPKM, Mitochondrial NADH dehydrogenase subunit 2 mt-nd2 ([1]; locus chrM: 3903-5008, vehicle 1965.45): 1122.94 FPKM
- Ln (Fold Change) (M/V), Cytochrome c oxidase subunit I mt-co1 ([1]; locus chrM: 5322-6933): 0.7397
- Ln (Fold Change) (M/V), Non-Annotated ([1]; locus chrM: 5322-6933): 0
- MARCKS FPKM, Non-Annotated ([1]; locus chrM: 5322-6933, vehicle 321.91): 0.00 FPKM
- MARCKS FPKM, Cytochrome c oxidase subunit I mt-co1 ([1]; locus chrM: 5322-6933, vehicle 9734.89): 7200.89 FPKM
- Ln (Fold Change) (M/V), Cytochrome c oxidase subunit 2 mt-co2 ([1]; locus chrM: 7005-7689): 0.6512
- MARCKS FPKM, Cytochrome c oxidase subunit 2 mt-co2 ([1]; locus chrM: 7005-7689, vehicle 5773.44): 3759.79 FPKM
- Ln (Fold Change) (M/V), ATP synthase F0 subunit 6 mt-ATP6 ([1]; locus chrM: 7757-9382): 0.5529
- Ln (Fold Change) (M/V), ATP synthase F0 subunit 8 mt-ATP8 ([1]; locus chrM: 7757-9382): 0.7137
- Ln (Fold Change) (M/V), Cytochrome c oxidase subunit 3 mt-co3 ([1]; locus chrM: 7757-9382): 0.5326
- MARCKS FPKM, ATP synthase F0 subunit 6 mt-ATP6 ([1]; locus chrM: 7757-9382, vehicle 3257.55): 1801.13 FPKM
- MARCKS FPKM, ATP synthase F0 subunit 8 mt-ATP8 ([1]; locus chrM: 7757-9382, vehicle 3627.88): 2589.08 FPKM
- MARCKS FPKM, Cytochrome c oxidase subunit 3 mt-co3 ([1]; locus chrM: 7757-9382, vehicle 5137.18): 2736.25 FPKM
- Ln (Fold Change) (M/V), Mitochondrial NADH dehydrogenase subunit 3 mt-nd3 ([1]; locus chrM: 9450-9798): 0.5255
- Ln (Fold Change) (M/V), NU3M_RAT ([1]; locus chrM: 9450-9798): 0.5255
- MARCKS FPKM, Mitochondrial NADH dehydrogenase subunit 3 mt-nd3 [1, 2]: 324.46 FPKM
- MARCKS FPKM, NU3M_RAT [1, 2]: 324.46 FPKM
- Ln (Fold Change) (M/V), Mitochondrial NADH dehydrogenase subunit 4 mt-nd4 ([1]; locus chrM: 9869-11537): 0.6903
- Ln (Fold Change) (M/V), NADH dehydrogenase subunit 4L mt-ND4L ([1]; locus chrM: 9869-11537): 0.7182
- MARCKS FPKM, Mitochondrial NADH dehydrogenase subunit 4 mt-nd4 ([1]; locus chrM: 9869-11537, vehicle 2440.82): 1684.95 FPKM
- MARCKS FPKM, NADH dehydrogenase subunit 4L mt-ND4L ([1]; locus chrM: 9869-11537, vehicle 5804.14): 4168.41 FPKM
- Ln (Fold Change) (M/V), Mitochondrial NADH dehydrogenase subunit 5 mt-nd5 ([1]; locus chrM: 11735-14061): 0.8563
- Ln (Fold Change) (M/V), Mitochondrial NADH dehydrogenase subunit 6 mt-nd6 ([1]; locus chrM: 11735-14061): 0.4947
- MARCKS FPKM, Mitochondrial NADH dehydrogenase subunit 6 mt-nd6 ([1]; locus chrM: 11735-14061, vehicle 1073.10): 530.91 FPKM
- MARCKS FPKM, Mitochondrial NADH dehydrogenase subunit 5 mt-nd5 ([1]; locus chrM: 11735-14061, vehicle 2920.80): 2501.19 FPKM
- Ln (Fold Change) (M/V), Cytochrome b (mt-cyb) ([1]; locus chrM: 14135-15278): 0.7536
- MARCKS FPKM, Cytochrome b (mt-cyb) ([1]; locus chrM: 14135-15278, vehicle 2792.49): 2104.37 FPKM
- Ln (Fold Change) (M/V), Gdi1 ([1]; locus chrX: 160299116-160305777): 0.6667
- MARCKS FPKM, Gdi1 ([1]; locus chrX: 160299116-160305777, vehicle 124.22): 82.82 FPKM

— US8927498B2, “Compositions and methods useful in enhancement of memory” (The Translational Genomics Research Institute, priority 2010, dated 2015)
